Data: patent US6541672B1, “Derivatives of benzilidine cyclohexanone, benzilidine cyclopentanone, and benzilidine acetone and their synthesis” (Faculty of Pharmacy, The University of Gadjah Mada, priority 1997, dated 2003)

How the values were obtained:
S. Aureus = experiment: Anti bacterial and antifungal activity test; type: cell-based; conditions: in DMSO, 37° C. 24 hours
Procedure: (§1) ANTI BATERIAL AND ANTIFUNGAL ACTIVITY TEST
(§2) Sterile medium of Bacto Muller Hinton was melted at 45-50° C. and poured (25 ml) into a sterile Petric dish (100 mm in diameter), and was left at room temperature for 1 hour. The sterility was checked by overnight incubation (37° C.). The media was immediately used. The microorganism used was gram positive and gram negative. The drug solutions of 0.1, 0.2 and 0.4% in DMSO were used. Incubation was performed at 37° C. for 24 hours.

B. subtilis = experiment: Anti bacterial and antifungal activity test; type: cell-based; conditions: in DMSO, 37° C. 24 hours
Procedure: as §1, §2

C. albicans = experiment: Anti bacterial and antifungal activity test; type: cell-based; conditions: in DMSO, 37° C. 24 hours
Procedure: as §1, §2

S. pheumoniae = experiment: Anti bacterial and antifungal activity test; type: cell-based, S. pneumoniae; conditions: in DMSO, 37° C. 24 hours
Procedure: as §1, §2

carragenin rat paw edema = experiment: Anti inflammatory activity test (Winter, 1962), carragenin rat paw edema; type: in vivo, Wistar rats; conditions: peroral in CMC 1%, inhibition of rat paw edema volume, doses 10-80 mg/kg bw
Source text: ANTI INFLAMMATORY ACTIVITY TEST (WINTER, 1962)
Carragenin was used as an inflammatory agent. The volum inhibition of rat paw edema following peroral administration of various doses of the sysnthetic compounds in 1% CMC in comparison to that of control was used to determine the activity of the compounds. In order to evaluate the anti-inflammatory of each compound. Wistar rats (body weight ranging from 200-250 g) were used and divided randomly into 5 groups: one group served as or control and 4 groups were treatment groups. The control group received the vehicle CMC; (Carboxy Methyl Cellulose […]), while the treatment groups received the synthetic compound per orally in CMC 1%. Doses of 10, 20, 40 and 80 mg/kg bw were given to the animals. Where one hour later the animals received a subplantar injection of 0.05 ml of carragenin suspension in saline solution (NaCi 0.9%)- The volumes of rat paw edema were measured immediately and every half an hour following the subplantar injection for 5 hours.

[1] = tested on: lipid peroxidation (microsome); experiment: Anti oxidation test (Haenen and Bast, 1983), lipid peroxidation; type: biochemical; conditions: malondialdehyde (TBA), microsome 2 mg protein/ml, 37° C., absorbance 535 nm
Procedure: ANTI OXIDATION […], 1983) Anti oxidative activity (lipid peroxidation) was determined by measuring the reactive form of thiobarbituric acid, i.e. malondialdehyde. The synthetic compound with final concentration of 0.5; 1.0; 2.0; 4.0 microM was put into glass tubes. […] The mixture was pre-incubated at 37° C. for 5 minutes. Lipid peroxidation was initiated with the addition of ferro sulphate (0.5 ml, 10 microN) and incubated at 37° C. for 5 minutes, the reaction was stopped by addition of aliquot (0.3 ml) to the mixture of TCA, TBA, and BHT (2 ml) in cold. After heating (80° C.) for 15 minutes and centrifugation (15 minutes), absorbance was read at 535 nm.

## O=C(C=Cc1cc(Cl)c(O)c(Cl)c1)C=Cc1cc(Cl)c(O)c(Cl)c1 [GVT-6, 1,5-bis (4-hydroxy-3,5-dichlorophenyl)-1,4-pentadiene-3-one]
S. Aureus
  Minimum Inhibition Concentration: 0.25%
B. subtilis
  Minimum Inhibition Concentration: 0.30%
C. albicans
  Minimum Inhibition Concentration: 0.25%
S. pheumoniae
  Minimum Inhibition Concentration: 0.05%

## CCc1cc(C=C2CCCC(=Cc3cc(CC)c(O)c(CC)c3)C2=O)cc(CC)c1O [HGV-2]
Carragenin rat paw edema
  ED 50: 20 mg/kg.bb
[1]
  IC50: 1970 nM

## COc1cc(/C=C2/CCC/C(=C/c3cc(OC)c(O)c(OC)c3)C2=O)cc(OC)c1O [HGV-5]
Carragenin rat paw edema
  ED 50: 222 mg/kg.bb
[1]
  IC50: 1700 nM

## O=C1C(=Cc2cc(Cl)c(O)c(Cl)c2)CCCC1=Cc1cc(Cl)c(O)c(Cl)c1 [HGV-6]
S. Aureus
  Minimum Inhibition Concentration: 0.35%
B. subtilis
  Minimum Inhibition Concentration: 0.25%
C. albicans
  Minimum Inhibition Concentration: 0.25%
Carragenin rat paw edema
  ED 50: 25 mg/kg.bb
S. pheumoniae
  Minimum Inhibition Concentration: 0.05%

## Cc1cc(/C=C2\CC/C(=C\c3cc(C)c(O)c(C)c3)C2=O)cc(C)c1O [PGV-1]
Carragenin rat paw edema
  ED 50: 86 mg/kg.bb
[1]
  IC50: 2200 nM

## CCc1cc(/C=C2\CC/C(=C\c3cc(CC)c(O)c(CC)c3)C2=O)cc(CC)c1O [PGV-2]
Carragenin rat paw edema
  ED 50: 80 mg/kg.bb
[1]
  IC50: 2210 nM

## COc1cc(/C=C2/CC/C(=C/c3cc(OC)c(O)c(OC)c3)C2=O)cc(OC)c1O [PGV-5]
Carragenin rat paw edema
  ED 50: 48 mg/kg.bb
[1]
  IC50: 990 nM

## O=C1C(=Cc2cc(Cl)c(O)c(Cl)c2)CCC1=Cc1cc(Cl)c(O)c(Cl)c1 [PGV-6]
S. Aureus
  Minimum Inhibition Concentration: 0.25%
B. subtilis
  Minimum Inhibition Concentration: 0.20%
C. albicans
  Minimum Inhibition Concentration: 0.25%
Carragenin rat paw edema
  ED 50: 20 mg/kg.bb
S. pheumoniae
  Minimum Inhibition Concentration: 0.10%
[1]
  IC50: 14900 nM
